Measurements reported in PubChem BioAssay AID220 (DTP/NCI, 2004).
Where “and” joins values, the source holds several entries; their conditions need not be identical. Equal values may be shown once. Inconclusive results are not listed.

Test system: CD8F1 mice, subcutaneous mammary adenocarcinoma, T/C%
Assay: NCI In Vivo Anticancer Drug Screen. Data for tumor model Mammary Adenocarcinoma CD8F1 (subcutaneous) in CD8F1
Details: higher = larger tumour
Procedure, shortened: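 Ratio of treated to vehicle-control outcome, based on either survival or tumor size, in mice bearing transplantable tumors given the test compound.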

[1] = endpoint: median tumor weight (est.), dose: 6.25 mg/kg/injection, schedule: Q07DX005 (ip), vehicle: saline
[2] = endpoint: median tumor weight (est.), dose: 12.5 mg/kg/injection, schedule: Q07DX005 (ip), vehicle: saline
[3] = endpoint: median tumor weight (est.), dose: 25.0 mg/kg/injection, schedule: Q07DX005 (ip), vehicle: saline
[4] = endpoint: median tumor weight (est.), dose: 6.25 mg/kg/injection, schedule: Q07DX005 (ip), vehicle: Klucel (hydroxypropylcellulose) (HPC)
[5] = endpoint: median tumor weight (est.), dose: 12.5 mg/kg/injection, schedule: Q07DX005 (ip), vehicle: Klucel (hydroxypropylcellulose) (HPC)
[6] = endpoint: median tumor weight (est.), dose: 25.0 mg/kg/injection, schedule: Q07DX005 (ip), vehicle: Klucel (hydroxypropylcellulose) (HPC)
[7] = endpoint: median tumor weight (est.), dose: 50.0 mg/kg/injection, schedule: Q07DX005 (ip), vehicle: Klucel (hydroxypropylcellulose) (HPC)
[8] = endpoint: median tumor weight (est.), dose: 100.0 mg/kg/injection, schedule: Q07DX005 (ip), vehicle: Klucel (hydroxypropylcellulose) (HPC)
[9] = endpoint: median tumor weight (est.), dose: 25.0 mg/kg/injection, schedule: Q07DX005 (ip), vehicle: saline with Tween-80
[10] = endpoint: median tumor weight (est.), dose: 100.0 mg/kg/injection, schedule: Q07DX005 (ip), vehicle: saline with Tween-80
[11] = endpoint: median tumor weight (est.), dose: 200.0 mg/kg/injection, schedule: Q07DX005 (ip), vehicle: saline with Tween-80
[12] = endpoint: median tumor weight (est.), dose: 50.0 mg/kg/injection, schedule: Q07DX005 (ip), vehicle: saline
[13] = endpoint: median tumor weight (est.), dose: 100.0 mg/kg/injection, schedule: Q07DX005 (ip), vehicle: saline
[14] = endpoint: median tumor weight (est.), dose: 200.0 mg/kg/injection, schedule: Q07DX005 (ip), vehicle: saline

`CCN(C)N=Nc1ccc(C(N)=O)cc1` was tested, and the T/C (endpoint: median tumor weight change, dose: 50.0 mg/kg/injection, schedule: Q01DX001 (ip), vehicle: Klucel (hydroxypropylcellulose) (HPC)) was 51 % of control, the T/C (endpoint: median tumor weight change, dose: 62.5 mg/kg/injection, schedule: Q01DX001 (ip), vehicle: Klucel (hydroxypropylcellulose) (HPC)) was 92 % of control and the T/C (endpoint: median tumor weight change, dose: 100.0 mg/kg/injection, schedule: Q01DX001 (ip), vehicle: Klucel (hydroxypropylcellulose) (HPC)) was 72 % of control. The T/C (endpoint: median tumor weight change, dose: 125.0 mg/kg/injection, schedule: Q01DX001 (ip), vehicle: Klucel (hydroxypropylcellulose) (HPC)) was 91 % of control, the T/C (endpoint: median tumor weight change, dose: 200.0 mg/kg/injection, schedule: Q01DX001 (ip), vehicle: Klucel (hydroxypropylcellulose) (HPC)) was 44 % of control and the T/C (endpoint: median tumor weight change, dose: 250.0 mg/kg/injection, schedule: Q01DX001 (ip), vehicle: Klucel (hydroxypropylcellulose) (HPC)) was 24 % of control. For the same molecule, the T/C (endpoint: median tumor weight change, dose: 400.0 mg/kg/injection, schedule: Q01DX001 (ip), vehicle: Klucel (hydroxypropylcellulose) (HPC)) was 21 % of control.

For `COCC(O)Cn1ccnc1[N+](=O)[O-]` (stereo unspecified), the T/C (endpoint: median tumor weight (est.), dose: 8.0 mg/kg/injection, schedule: Q07DX005 (ip), vehicle: Klucel (hydroxypropylcellulose) (HPC)) was 101 % of control, the T/C (endpoint: median tumor weight (est.), dose: 8.0 mg/kg/injection, schedule: Q07DX005 (ip), vehicle: saline) was 183 % of control and the T/C (endpoint: median tumor weight (est.), dose: 16.0 mg/kg/injection, schedule: Q07DX005 (ip), vehicle: Klucel (hydroxypropylcellulose) (HPC)) was 124 % of control. The T/C (endpoint: median tumor weight (est.), dose: 16.0 mg/kg/injection, schedule: Q07DX005 (ip), vehicle: saline) was 256 % of control, the T/C (endpoint: median tumor weight (est.), dose: 32.0 mg/kg/injection, schedule: Q07DX005 (ip), vehicle: saline) was 256 % of control and the T/C (endpoint: median tumor weight (est.), dose: 64.0 mg/kg/injection, schedule: Q07DX005 (ip), vehicle: Klucel (hydroxypropylcellulose) (HPC)) was 74 % of control. For the same molecule, the T/C (endpoint: median tumor weight (est.), dose: 64.0 mg/kg/injection, schedule: Q07DX005 (ip), vehicle: saline) was 249 % of control, the T/C (endpoint: median tumor weight (est.), dose: 128.0 mg/kg/injection, schedule: Q07DX005 (ip), vehicle: Klucel (hydroxypropylcellulose) (HPC)) was 88 % of control and the T/C (endpoint: median tumor weight (est.), dose: 128.0 mg/kg/injection, schedule: Q07DX005 (ip), vehicle: saline) was 488 % of control. For the same molecule, the T/C (endpoint: median tumor weight (est.), dose: 256.0 mg/kg/injection, schedule: Q07DX005 (ip), vehicle: Klucel (hydroxypropylcellulose) (HPC)) was 121 % of control and the T/C (endpoint: median tumor weight (est.), dose: 256.0 mg/kg/injection, schedule: Q07DX005 (ip), vehicle: saline) was 108 % of control.

With `O=c1[nH]c(=O)n(C2OC(CO)C(O)C2O)cc1F` (stereo unspecified) the T/C (endpoint: median tumor weight (est.), dose: 1.56 mg/kg/injection, schedule: Q07DX005 (ip), vehicle: saline) was 79 % of control, the T/C (endpoint: median tumor weight (est.), dose: 3.12 mg/kg/injection, schedule: Q07DX005 (ip), vehicle: saline) was 103 % of control and the T/C [1] was 75 % of control. The T/C [2] was 45 % of control and the T/C [3] was 11 % of control.

For `NC(Cc1ccc(N(CCCl)Cc2ccccc2)cc1)C(=O)O` (stereo unspecified), the T/C (endpoint: median tumor weight (est.), dose: 6.25 mg/kg/injection, schedule: Q07DX005 (ip), vehicle: distilled water + Tween-80) was 84 % of control, the T/C (endpoint: median tumor weight (est.), dose: 12.5 mg/kg/injection, schedule: Q07DX005 (ip), vehicle: distilled water + Tween-80) was 60 % of control and the T/C (endpoint: median tumor weight (est.), dose: 25.0 mg/kg/injection, schedule: Q07DX005 (ip), vehicle: distilled water + Tween-80) was 79 % of control. For the same molecule, the T/C (endpoint: median tumor weight (est.), dose: 50.0 mg/kg/injection, schedule: Q07DX005 (ip), vehicle: distilled water + Tween-80) was 25 % of control.

For `C[C@@H]1C[C@H]2[C@@H]3CCC4=CC(=O)C=C[C@]4(C)[C@@]3(F)[C@@H](O)C[C@]2(C)[C@@]1(O)C(=O)CO`, the T/C [4] was 88 % of control, the T/C [5] was 32 % of control and the T/C [6] was 31 % of control. For the same molecule, the T/C [7] was 12 % of control and the T/C [8] was 7 % of control.

For `O=Cc1ccc(C(Cl)(Cl)Cl)cc1`, the T/C (endpoint: median tumor weight (est.), dose: 12.5 mg/kg/injection, schedule: Q07DX005 (ip), vehicle: saline with Tween-80) was 94 % of control, the T/C [9] was 55 % of control and the T/C (endpoint: median tumor weight (est.), dose: 50.0 mg/kg/injection, schedule: Q07DX005 (ip), vehicle: saline with Tween-80) was 97 % of control. The T/C [10] was 68 % of control and the T/C [11] was 81 % of control.

With `CC[C@@]1(O)C[C@H](OC2CC(N(C)C)C(OC3CC(O)C(OC4CCC(=O)C(C)O4)C(C)O3)C(C)O2)c2c(cc3c(c2O)C(=O)c2c(O)ccc(O)c2C3=O)[C@H]1C(=O)OC` (stereo partly specified) the T/C (endpoint: mean tumor weight, dose: 0.5 mg/kg/injection, schedule: Q07DX006 (ip), vehicle: water) was 43 % of control, the T/C (endpoint: mean tumor weight, dose: 1.0 mg/kg/injection, schedule: Q07DX006 (ip), vehicle: water) was 35 % of control and the T/C (endpoint: mean tumor weight, dose: 2.0 mg/kg/injection, schedule: Q07DX006 (ip), vehicle: water) was 5 % of control. For the same molecule, the T/C (endpoint: mean tumor weight, dose: 4.0 mg/kg/injection, schedule: Q07DX006 (ip), vehicle: water) was 17 % of control, the T/C (endpoint: median tumor weight (est.), dose: 0.5 mg/kg/injection, schedule: Q07DX005 (ip), vehicle: water) was 69 % of control and 90 % of control and the T/C (endpoint: median tumor weight (est.), dose: 1.0 mg/kg/injection, schedule: Q07DX005 (ip), vehicle: water) was 83 % of control. The T/C (endpoint: median tumor weight (est.), dose: 2.0 mg/kg/injection, schedule: Q07DX005 (ip), vehicle: water) was 37 % of control and 53 % of control, the T/C (endpoint: median tumor weight (est.), dose: 4.0 mg/kg/injection, schedule: Q07DX005 (ip), vehicle: water) was 8 % of control and 26 % of control and the T/C (endpoint: median tumor weight (est.), dose: 8.0 mg/kg/injection, schedule: Q07DX005 (ip), vehicle: water) was 1 % of control.

For `Cc1c2c(ccc3ccccc32)c[n+]2ccccc12`, the T/C [1] was 73 % of control and the T/C [2] was 71 % of control.

`N=C(N)SCc1c2ccccc2c(CSC(=N)N)c2ccccc12` was tested, and the T/C [12] was 105 % of control and 119 % of control, the T/C [13] was 107 % of control and the T/C [14] was 25 % of control. The T/C (endpoint: median tumor weight change, dose: 50.0 mg/kg/injection, schedule: Q01DX001 (ip), vehicle: saline + alcohol) was 77 % of control, the T/C (endpoint: median tumor weight change, dose: 50.0 mg/kg/injection, schedule: Q01DX001 (ip), vehicle: suspension in saline) was 90 % of control and the T/C (endpoint: median tumor weight change, dose: 100.0 mg/kg/injection, schedule: Q01DX001 (ip), vehicle: saline + alcohol) was 99 % of control. The T/C (endpoint: median tumor weight change, dose: 100.0 mg/kg/injection, schedule: Q01DX001 (ip), vehicle: suspension in saline) was 102 % of control and 111 % of control, the T/C (endpoint: median tumor weight change, dose: 200.0 mg/kg/injection, schedule: Q01DX001 (ip), vehicle: saline + alcohol) was 58 % of control and the T/C (endpoint: median tumor weight change, dose: 200.0 mg/kg/injection, schedule: Q01DX001 (ip), vehicle: suspension in saline) was 84 % of control and 86 % of control. For the same molecule, the T/C (endpoint: median tumor weight change, dose: 400.0 mg/kg/injection, schedule: Q01DX001 (ip), vehicle: saline + alcohol) was 31 % of control.

`C1CCC2[N-]CC3CCCCC3[N-]CC3CCCCC3[N-]CC3CCCCC3[N-]CC2C1.[Cu]` (stereo unspecified) was tested, and the T/C [4] was 71 % of control, the T/C [5] was 99 % of control and the T/C [6] was 80 % of control.

In the case of `COC1C(/C=C/C(C)=O)OC2OC(C)(C)OC21` (stereo unspecified), the T/C [5] is reported as 165 % of control, the T/C [2] is reported as 76 % of control and the T/C [6] is reported as 99 % of control. The T/C [3] was 83 % of control, the T/C [7] was 91 % of control and the T/C [12] was 38 % of control. For the same molecule, the T/C [8] was 96 % of control, the T/C [13] was 101 % of control and the T/C (endpoint: median tumor weight (est.), dose: 200.0 mg/kg/injection, schedule: Q07DX005 (ip), vehicle: Klucel (hydroxypropylcellulose) (HPC)) was 71 % of control. For the same molecule, the T/C [14] was 101 % of control and the T/C (endpoint: median tumor weight (est.), dose: 400.0 mg/kg/injection, schedule: Q07DX005 (ip), vehicle: saline) was 84 % of control.

`COC(=O)C(Cl)(Cl)N=Nc1c(Cl)cc(Cl)c(C)c1Cl` was tested, and the T/C [9] was 104 % of control, the T/C [10] was 71 % of control and the T/C [11] was 85 % of control and 110 % of control. The T/C (endpoint: median tumor weight change, dose: 400.0 mg/kg/injection, schedule: Q01DX001 (ip), vehicle: saline with Tween-80) was 78 % of control.

`C[C@H](N)C(=O)N[C@@H]1[C@H]2C(=C(O)C[C@@H](O)[C@@H]2O)C(=O)O[C@]1(C)C(Cl)Cl` was tested, and the T/C (endpoint: median tumor weight change, dose: 1.87 mg/kg/injection, schedule: Q01DX001 (ip), vehicle: Klucel (hydroxypropylcellulose) (HPC)) was 101 % of control and the T/C (endpoint: median tumor weight change, dose: 3.75 mg/kg/injection, schedule: Q01DX001 (ip), vehicle: Klucel (hydroxypropylcellulose) (HPC)) was 101 % of control.

With `COC(C(=O)C(O)C(C)O)C1Cc2cc3cc(OC4CC(OC(C)=O)C(OC5CC(O)C(OC)C(C)O5)C(C)O4)cc(O)c3c(O)c2C(=O)C1OC1CC(OC2CC(OC3CC(C)(O)C(OC(=O)C(C)C)C(C)O3)C(O)C(C)O2)C(O)C(C)O1` (stereo unspecified) the T/C (endpoint: median tumor weight (est.), dose: 0.5 mg/kg/injection, schedule: Q07DX005 (ip), vehicle: saline) was 76 % of control, the T/C (endpoint: median tumor weight (est.), dose: 1.0 mg/kg/injection, schedule: Q07DX005 (ip), vehicle: saline) was 30 % of control and the T/C (endpoint: median tumor weight (est.), dose: 2.0 mg/kg/injection, schedule: Q07DX005 (ip), vehicle: saline) was 34 % of control.
